Results reported in ChEMBL document CHEMBL4715808, “Discovery of (1S,2R,3S,4S,5R,6R)-2-Amino-3-[(3,4-difluorophenyl)sulfanylmethyl]-4-hydroxy-bicyclo[3.1.0]hexane-2,6-dicarboxylic Acid Hydrochloride (LY3020371·HCl): A Potent, Metabotropic Glutamate 2/3 Receptor Antagonist with Antidepressant-Like Activity” (J Med Chem, 2016).

Legend:
[1] = biological target: T1, Metabotropic glutamate receptor 2 (Homo sapiens, UniProt Q14416); assay: […] at mGlu2 (unknown origin)
[2] = biological target: T2, Metabotropic glutamate receptor 3 (Homo sapiens, UniProt Q14832); assay: Antagonist activity at human recombinant mGlu3 receptor stably expressed in golden hamster AV12 cells co-expressing rat EAAT1 assessed as reduction in DCG IV-induced inhibition of forskolin-stimulated cAMP accumulation preincubated for 20 mins followed by incubation with cAMP-d2 conjugate and anti-cAMP cryptate for 1 hr by HTRF assay; assay type: functional, cell-based
T2 sequence (Q14832 whole entry): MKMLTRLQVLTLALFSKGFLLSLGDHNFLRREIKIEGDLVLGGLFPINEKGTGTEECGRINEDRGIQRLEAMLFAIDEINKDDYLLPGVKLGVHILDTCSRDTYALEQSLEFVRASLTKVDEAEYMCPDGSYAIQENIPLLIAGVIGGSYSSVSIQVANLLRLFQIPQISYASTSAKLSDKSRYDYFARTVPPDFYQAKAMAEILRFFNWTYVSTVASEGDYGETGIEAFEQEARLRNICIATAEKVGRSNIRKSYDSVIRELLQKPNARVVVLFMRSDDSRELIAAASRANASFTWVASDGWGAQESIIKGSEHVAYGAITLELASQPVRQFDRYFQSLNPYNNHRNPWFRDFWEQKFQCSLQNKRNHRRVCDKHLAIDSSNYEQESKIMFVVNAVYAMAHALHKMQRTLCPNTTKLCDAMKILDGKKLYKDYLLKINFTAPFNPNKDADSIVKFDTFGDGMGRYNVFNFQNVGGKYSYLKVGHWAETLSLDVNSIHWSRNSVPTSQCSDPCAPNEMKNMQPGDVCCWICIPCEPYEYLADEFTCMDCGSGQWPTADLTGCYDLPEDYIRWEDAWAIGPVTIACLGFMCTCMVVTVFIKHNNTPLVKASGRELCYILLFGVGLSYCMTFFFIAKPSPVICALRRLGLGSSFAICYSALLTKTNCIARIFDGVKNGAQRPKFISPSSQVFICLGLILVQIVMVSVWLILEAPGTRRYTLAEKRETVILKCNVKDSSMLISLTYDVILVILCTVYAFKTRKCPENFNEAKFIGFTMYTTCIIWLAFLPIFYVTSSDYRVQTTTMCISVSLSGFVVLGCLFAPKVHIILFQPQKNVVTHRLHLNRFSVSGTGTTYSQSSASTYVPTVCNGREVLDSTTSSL

[3] = biological target: T2, Metabotropic glutamate receptor 3; assay: Displacement of [3H]-LY459477 from recombinant human mGlu3 receptor expressed in hamster AV12 cell membranes co-expressing rat EAAT1 incubated for 90 mins by top count scintillation method; set-up: species or system Cell membrane
[4] = biological target: T1, Metabotropic glutamate receptor 2
Description: Antagonist activity at human recombinant mGlu2 receptor stably expressed in golden hamster AV12 cells co-expressing rat EAAT1 assessed as reduction in DCG IV-induced inhibition of forskolin-stimulated cAMP accumulation preincubated for 20 mins followed by incubation with cAMP-d2 conjugate and anti-cAMP cryptate for 1 hr by HTRF assay

[5] = biological target: T1, Metabotropic glutamate receptor 2; remark: listed apart in the source
Description: Displacement of [3H]-LY459477 from recombinant human mGlu2 receptor expressed in hamster AV12 cell membranes co-expressing rat EAAT1 incubated for 90 mins by top count scintillation method

T1 sequence (Q14416 whole entry): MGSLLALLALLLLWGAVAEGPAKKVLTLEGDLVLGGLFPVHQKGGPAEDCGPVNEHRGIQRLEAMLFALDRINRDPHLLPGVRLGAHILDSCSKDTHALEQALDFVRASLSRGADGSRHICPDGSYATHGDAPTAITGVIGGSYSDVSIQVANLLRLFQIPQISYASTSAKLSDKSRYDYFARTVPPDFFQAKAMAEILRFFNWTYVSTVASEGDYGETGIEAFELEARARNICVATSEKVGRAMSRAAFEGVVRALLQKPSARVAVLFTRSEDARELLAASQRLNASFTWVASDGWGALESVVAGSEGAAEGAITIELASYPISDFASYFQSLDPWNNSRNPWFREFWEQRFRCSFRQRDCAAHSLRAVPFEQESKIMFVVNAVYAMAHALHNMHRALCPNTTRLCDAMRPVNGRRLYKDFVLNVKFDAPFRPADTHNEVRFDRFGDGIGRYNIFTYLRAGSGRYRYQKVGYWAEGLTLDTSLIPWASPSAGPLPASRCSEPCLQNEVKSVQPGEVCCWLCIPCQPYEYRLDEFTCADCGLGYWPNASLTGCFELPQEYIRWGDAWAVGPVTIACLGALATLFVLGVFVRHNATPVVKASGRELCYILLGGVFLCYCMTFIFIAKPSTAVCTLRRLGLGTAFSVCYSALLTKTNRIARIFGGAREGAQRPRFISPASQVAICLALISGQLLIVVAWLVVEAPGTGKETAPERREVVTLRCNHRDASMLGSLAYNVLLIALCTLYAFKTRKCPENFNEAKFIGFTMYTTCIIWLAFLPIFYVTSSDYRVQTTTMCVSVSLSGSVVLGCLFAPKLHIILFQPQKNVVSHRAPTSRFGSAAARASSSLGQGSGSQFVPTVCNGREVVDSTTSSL

Row | Structure (SMILES) | IC50 [1] [nM] | IC50 [2] [nM] | Ki [3] [nM] | IC50 [4] [nM] | Ki [5] [nM]
1 | N[C@@]1(C(=O)O)C[C@@H](O)[C@H]2[C@H](C(=O)O)[C@H]21 | 8.6 |  |  |  | 
2 | N[C@@]1(C(=O)O)C[C@H](O)[C@H]2[C@H](C(=O)O)[C@H]21 | 22.6 |  |  |  | 
3 | N[C@@]1(C(=O)O)[C@H](Cc2ccc(F)c(Cl)c2)C[C@H]2[C@H](C(=O)O)[C@H]21 |  | 110 |  |  | 
4 | CC(=O)N[C@H]1[C@H]2[C@H](C(=O)O)[C@H]2[C@](N)(C(=O)O)[C@@H]1CSc1ccc(F)c(C)c1 |  | 12.4 | 7.7 | 26.2 | 9.2
5 | N[C@]1(C(=O)O)[C@@H]2[C@@H](C(=O)O)[C@@H]2[C@H](O)[C@H]1CSc1ccc(Cl)c(Cl)c1 |  | 56.5 | 9.4 | 9.8 | 8.4
